Assays:
[1] = biological target: T1, B-Raf^V600E (Homo sapiens, UniProt P15056, V600E); assay: In vitro B-Raf kinase assay (ELISA); format: biochemical; conditions: n = 3, read-out: IC50 against B-Raf^V600E (converted)
T1 construct: purchased
Experimental: Raf is a protein kinase that initiates a cascade of other protein kinases by acting on the protein kinases MEK-1 and MEK-2 [21].
(§1) Next, 100 µL of standard solution and tested molecules were pipetted into the 96-wells and B-RAF was bound to the wells by the immobilized antibody. The wells were washed and biotinylated antihuman B-Raf antibody was added. After washing away unbound biotinylated antibody, 100 µL of conjugated streptavidin solution was pipetted into the wells. After washing, 100 µL of TMB substrate solution was added to the wells for 30 min at 37 °C. Stop solution (50 µL) was added, and the intensity of the color is measured immediately at 450 nm.

[2] = test system: MCF-7 cells; assay: Cell cycle analysis by DNA flow cytometry; format: cell-based; conditions: MCF-7, compound at its IC50, 48 h; for percentage of cells at pre-G1 phase: control 1.61%; for percentage of cell population at the G2/M phase: control 8.79%
Experimental: Therefore, it can be concluded that compounds 4d and 5 inhibit the cell proliferation of MCF-7 cells via cell cycle arrest at the G2/M phase and induction of apoptosis (Figure 2).
MCF-7 cells (2 × 10^5/well) were harvested and washed twice in PBS. After that, cells were incubated at 37 °C and 5% CO2. The medium was replaced with DMSO (1% v/v) containing the tested compounds, then incubated for 48 h, washed twice in PBS, fixed with 70% ethanol, rinsed again with PBS, and then stained with DNA fluorochrome PI for 15 min at 37 °C. DNA content was analyzed by flow cytometry on a FACS Calibur flow cytometer (Becton and Dickinson, Heidelberg, Germany).

[3] = test system: normal breast cell line (MCF-10A); assay: MTT cytotoxicity assay, normal breast cell line MCF-10A; format: cell-based; conditions: for IC50: Homo sapiens, MCF-10A, 24 h treatment
Experimental: (§2) The effect of imidazole molecules 4a–e and 5 on the viability of three cancer cell lines were studied using the MTT assay. The cytotoxicity was assessed using Docetaxel (DOC) as a standard antitumor drug. The three cancer cell lines were MCF-7 (breast cancer cell line), colon carcinoma (HCT-116), and HepG2 (hepatocellular carcinoma cell line). […] Moreover, the safety of compounds 4d and 5 was assessed against a normal breast cell line (MCF-10A) using the MTT assay.
(§3) Antitumor activity of the newly prepared imidazole compounds 4a–e and 5 were carried out against MCF-7, HepG2, HCT-116, and MCF-10A using the MTT assay method. Cells at a density of 1 × 10^4 were seeded in 96-well plates at 37 °C for 48 h under 5% CO2. After incubation, the cells were treated with different concentrations of the prepared molecules and incubated for 24 h. MTT dye was added at the end of 24 h of drug treatment and incubated for 4 h at 37 °C. Next, 100 µL of dimethyl sulfoxide was added to each well to dissolve the purple formazan formed. The color intensity of the formazan product, which represents the growth condition of the cells, is quantified using an ELISA plate reader at 570 nm. The experimental conditions were carried out with at least three replicates and the experiments were repeated at least three times.

[4] = test system: MCF-7 cells; assay: Annexin V-FITC/PI apoptosis induction analysis; format: cell-based; conditions: MCF-7, compound at its IC50, 48 h; for percent of early apoptosis: lower right quadrant, control 0.43%; for percent of late apoptosis: upper right quadrant, control 0.23%
Experimental: Several imidazole molecules have been reported in the literature as apoptosis inducers in several tumor cell lines. To evaluate the mode of cell death induced by compounds 4d and 5, Annexin V/FITC and propidium iodide (PI) assays were performed. MCF-7 cells were treated with compounds 4d and 5 at their IC50 concentration dose value for 48 h.
Apoptosis in MCF-7 cells was investigated using fluorescent Annexin V-FITC/PI detection kit by flow cytometry assay. Briefly, MCF-7 cells (2 × 10^5) after incubation for 12 h. Cells were treated with compounds 4d and 5 at their IC50 concentration for 48 h, then the cells were harvested and stained with Annexin V-FITC/PI dye for 15 min in the dark at 37 °C. Flow cytometry analyses were performed using a FACS Calibur flow cytometer (Becton and Dickinson, Heidelberg, Germany).

[5] = test system: colon carcinoma (HCT-116); assay: MTT cytotoxicity assay, HCT-116; format: cell-based; conditions: 24 h treatment, mean of three experiments
Experimental: as §2, §3

[6] = biological target: T2, human VEGFR-2 (Homo sapiens, UniProt P35968); assay: In vitro VEGFR-2 kinase assay (ELISA); format: biochemical; conditions: n = 3, read-out: IC50 against VEGFR-2 kinase (converted)
T2 construct: purchased
Experimental: To investigate the possible molecular mechanism underlying the potent anticancer activity of compounds 4d and 5. Their inhibitory activity against VEGFR-2 kinase was determined using an ELISA assay.
as §1, with “A total of” for “Next,”, “VEGFR-2” for “B-RAF”, “VEGFR-2” for “B-Raf”, “was” for “is”

[7] = test system: MCF-7 (breast cancer cell line); assay: MTT cytotoxicity assay, MCF-7; format: cell-based; conditions: Homo sapiens, MCF7, 24 h, 24 h treatment, mean of three experiments
Experimental: as §2, §3

[8] = test system: HepG2 (hepatocellular carcinoma cell line); assay: MTT cytotoxicity assay, HepG2; format: cell-based; conditions: Homo sapiens, HepG2, 24 h, 24 h treatment, mean of three experiments
Experimental: as §2, §3

[9] = test system: MCF-7 cell line; parameters: method as in PMID 32757353; conditions: read-out: IC50 against MCF-7 cell line; cited from earlier work

T2 sequence (P35968 20-1356): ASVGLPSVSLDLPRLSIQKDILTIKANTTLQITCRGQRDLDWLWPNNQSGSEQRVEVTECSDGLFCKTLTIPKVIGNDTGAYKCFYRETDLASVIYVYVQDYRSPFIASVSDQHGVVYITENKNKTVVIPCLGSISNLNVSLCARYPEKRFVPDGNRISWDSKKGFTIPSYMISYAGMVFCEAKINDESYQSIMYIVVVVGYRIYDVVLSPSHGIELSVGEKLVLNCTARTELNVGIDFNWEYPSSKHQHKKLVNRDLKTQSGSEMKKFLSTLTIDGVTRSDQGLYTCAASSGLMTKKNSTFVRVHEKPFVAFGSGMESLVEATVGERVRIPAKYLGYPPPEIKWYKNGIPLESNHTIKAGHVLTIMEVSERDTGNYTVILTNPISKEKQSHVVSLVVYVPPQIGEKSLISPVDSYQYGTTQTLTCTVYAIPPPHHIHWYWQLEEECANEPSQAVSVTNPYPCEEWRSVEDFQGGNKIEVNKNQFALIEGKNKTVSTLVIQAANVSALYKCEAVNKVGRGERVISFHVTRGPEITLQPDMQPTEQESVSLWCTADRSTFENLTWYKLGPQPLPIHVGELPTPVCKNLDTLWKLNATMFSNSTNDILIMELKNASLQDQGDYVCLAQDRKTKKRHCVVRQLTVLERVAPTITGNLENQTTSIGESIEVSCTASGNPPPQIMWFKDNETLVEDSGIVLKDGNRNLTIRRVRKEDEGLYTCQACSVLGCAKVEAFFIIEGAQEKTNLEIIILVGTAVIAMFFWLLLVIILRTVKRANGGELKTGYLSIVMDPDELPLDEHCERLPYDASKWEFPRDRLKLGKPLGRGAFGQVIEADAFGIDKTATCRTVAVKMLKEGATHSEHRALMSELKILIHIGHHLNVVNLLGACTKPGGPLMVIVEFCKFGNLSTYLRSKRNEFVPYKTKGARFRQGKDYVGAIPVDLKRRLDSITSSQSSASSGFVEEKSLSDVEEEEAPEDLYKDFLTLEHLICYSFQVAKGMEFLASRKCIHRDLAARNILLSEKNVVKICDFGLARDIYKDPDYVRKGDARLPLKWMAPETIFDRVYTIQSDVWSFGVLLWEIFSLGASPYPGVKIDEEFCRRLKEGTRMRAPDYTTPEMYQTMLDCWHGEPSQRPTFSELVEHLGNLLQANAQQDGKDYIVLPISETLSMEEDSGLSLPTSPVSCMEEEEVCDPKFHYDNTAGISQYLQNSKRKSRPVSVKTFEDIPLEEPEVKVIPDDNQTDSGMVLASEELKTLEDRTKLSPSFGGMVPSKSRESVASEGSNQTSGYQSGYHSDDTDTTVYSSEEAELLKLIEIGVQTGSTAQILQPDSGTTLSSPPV
T1 sequence (P15056 whole entry V600E): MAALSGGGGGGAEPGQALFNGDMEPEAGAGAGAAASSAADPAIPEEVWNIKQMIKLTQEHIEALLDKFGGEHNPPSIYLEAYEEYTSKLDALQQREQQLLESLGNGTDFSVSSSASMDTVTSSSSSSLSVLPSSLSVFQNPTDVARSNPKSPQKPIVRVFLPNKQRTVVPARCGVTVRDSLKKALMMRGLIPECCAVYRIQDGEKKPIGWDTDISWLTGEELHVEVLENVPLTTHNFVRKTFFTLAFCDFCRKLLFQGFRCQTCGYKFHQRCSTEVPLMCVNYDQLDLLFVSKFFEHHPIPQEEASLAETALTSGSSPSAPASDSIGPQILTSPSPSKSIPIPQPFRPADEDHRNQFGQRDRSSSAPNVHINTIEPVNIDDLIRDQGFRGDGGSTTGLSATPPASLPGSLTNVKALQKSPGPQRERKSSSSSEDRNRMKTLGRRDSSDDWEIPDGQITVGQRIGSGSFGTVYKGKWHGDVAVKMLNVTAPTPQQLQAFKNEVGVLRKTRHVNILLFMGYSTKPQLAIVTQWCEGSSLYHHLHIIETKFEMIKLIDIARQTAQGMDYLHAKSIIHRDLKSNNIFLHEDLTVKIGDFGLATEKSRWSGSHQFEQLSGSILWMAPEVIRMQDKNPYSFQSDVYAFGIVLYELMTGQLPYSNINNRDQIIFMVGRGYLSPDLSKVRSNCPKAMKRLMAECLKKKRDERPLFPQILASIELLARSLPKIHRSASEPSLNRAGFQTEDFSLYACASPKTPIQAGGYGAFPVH

melting point [°C] | SMILES | IC50 [3] [µM] | IC50 ([5]; Homo sapiens, HCT-116, 24 h) [µM] | IC50 [7] [µM] | IC50 [8] [µM] | also measured
139 to 141 | S=c1[nH]cc(-c2ccc(Cl)cc2)n1/N=C/C=C/c1ccccc1 [Compound 4e, 5-(4-Chlorophenyl)-1-((E)-((E)-3-phenylallylidene)amino)-1H-imidazole-2(3H)-thione] |  | 3.99 ± 0.3 | 13.2 ± 0.9 | 17 ± 1.1 | 
191 to 193 | Oc1ccc(Br)cc1/C=N/n1c(-c2ccc(Cl)cc2)c[nH]c1=S [Compound 4c, (E)-1-(5-Bromo-2-hydroxybenzylideneamino)-5-(4-chlorophenyl)-1H-imidazole-2(3H)-thione] |  | 9.96 ± 0.7 | 44 ± 2.9 | 11.4 ± 0.8 | 
115 to 117 | CC(=O)Oc1ccccc1/C=N/n1c(-c2ccc(Cl)cc2)cn(C(C)=O)c1=S [Compound 6, (E)-2-((3-Acetyl-5-(4-chlorophenyl)-2-thioxo-2,3-dihydro-1H-imidazol-1-ylimino)methyl)phenyl Acetate] |  |  |  |  | 

Further lines, the compound ahead of its results:

SMILES | melting point [°C] | IC50 [3] [µM] | IC50 ([5]; Homo sapiens, HCT-116, 24 h) [µM] | IC50 [7] [µM] | IC50 [8] [µM] | also measured
COc1ccc(-c2c[nH]c(=S)n2/N=C/c2ccccc2O)cc1 [Compound 5, (E)-1-(2-Hydroxybenzylideneamino)-5-(4-methoxyphenyl)-1H-imidazole-2(3H)-thione] |  | 27.8 ± 0.31 | < 5 |  |  | IC50 [1]: 7.31 µM; percentage of cells at pre-G1 phase [2]: 22.81%; percentage of cell population at the G2/M phase [2]: 25.63%; cytotoxic effect towards MCF-10A (in words) [3]: weak cytotoxic effect; percent of early apoptosis [4]: 2.66%; percent of late apoptosis [4]: 13.64%; IC50 [5]: 3.99 ± 0.3 µM; IC50 [6]: 0.252 µM
CNC(=O)c1cc(Oc2ccc(NC(=O)Nc3ccc(Cl)c(C(F)(F)F)c3)cc2)ccn1 [SOR] |  |  |  |  |  | IC50 [9]: 1.12 µM
COc1ccc(/C=N/n2c(-c3ccc(Cl)cc3)c[nH]c2=S)cc1 [Compound 4d, (E)-5-(4-Chlorophenyl)-1-(4-methoxybenzylideneamino)-1H-imidazole-2(3H)-thione] |  | 44.06 ± 0.23 | 28.9 ± 1.9 | 7.97 ± 0.5 | 4.09 ± 0.3 | IC50 [1]: 38 µM; percentage of cells at pre-G1 phase [2]: 22.36%; percentage of cell population at the G2/M phase [2]: 35.55%; cytotoxic effect towards MCF-10A (in words) [3]: weak cytotoxic effect; percent of early apoptosis [4]: 6.12%; percent of late apoptosis [4]: 10.23%; IC50 [6]: 0.721 µM
CC(=O)O[C@@]12CO[C@@H]1C[C@H](O)[C@@]1(C)C(=O)[C@H](O)C3=C(C)[C@@H](OC(=O)[C@H](O)[C@@H](NC(=O)OC(C)(C)C)c4ccccc4)C[C@@](O)([C@@H](OC(=O)c4ccccc4)[C@H]21)C3(C)C [DOC, Docetaxel, reference compound] |  | 33.17 ± 0.19 | 14 ± 0.9 | 11.1 ± 0.7 | 8.13 ± 0.5 | 
CCOC(=O)/C(C#N)=C(\c1ccc(O)cc1)n1cc(O)n(/N=C/C=C/c2ccccc2)c1=S [compound III] |  |  |  |  |  | IC50 [9]: 3.26 µM
Oc1ccccc1/C=N/n1c(-c2ccc(Cl)cc2)c[nH]c1=S [Compound 4b, (E)-5-(4-Chlorophenyl)-1-(2-hydroxybenzylideneamino)-1H-imidazole-2(3H)-thione] | 128 to 130 |  | 23.5 ± 1.6 | 24.9 ± 1.6 | > 50 | 
S=c1[nH]cc(-c2ccc(Cl)cc2)n1/N=C/c1ccccc1 [Compound 4a, (E)-1-(Benzylideneamino)-5-(4-chlorophenyl)-1H-imidazole-2(3H)-thione] | 121 to 123 |  | 20.6 ± 1.4 | > 50 | 61.8 ± 4.1 | 
